# Assay results taken from patent US20260191968A1, “PROTAC DEGRADERS OF MLLT1 AND/OR MLLT3” (DARK BLUE THERAPEUTICS LTD, priority 2024, published 2026).
# Key:
# MLLT1 = biological target: T1, MLLT1 (Homo sapiens, UniProt Q03111); experiment: MLLT1 degradation assay in MV4-11 cells (JESS chemiluminescent detection), three concentrations, 24 h; type: cell-based; conditions: with respect to DMSO control
# T1 construct: host or cells: MV4-11
# T1 sequence (Q03111 1-559): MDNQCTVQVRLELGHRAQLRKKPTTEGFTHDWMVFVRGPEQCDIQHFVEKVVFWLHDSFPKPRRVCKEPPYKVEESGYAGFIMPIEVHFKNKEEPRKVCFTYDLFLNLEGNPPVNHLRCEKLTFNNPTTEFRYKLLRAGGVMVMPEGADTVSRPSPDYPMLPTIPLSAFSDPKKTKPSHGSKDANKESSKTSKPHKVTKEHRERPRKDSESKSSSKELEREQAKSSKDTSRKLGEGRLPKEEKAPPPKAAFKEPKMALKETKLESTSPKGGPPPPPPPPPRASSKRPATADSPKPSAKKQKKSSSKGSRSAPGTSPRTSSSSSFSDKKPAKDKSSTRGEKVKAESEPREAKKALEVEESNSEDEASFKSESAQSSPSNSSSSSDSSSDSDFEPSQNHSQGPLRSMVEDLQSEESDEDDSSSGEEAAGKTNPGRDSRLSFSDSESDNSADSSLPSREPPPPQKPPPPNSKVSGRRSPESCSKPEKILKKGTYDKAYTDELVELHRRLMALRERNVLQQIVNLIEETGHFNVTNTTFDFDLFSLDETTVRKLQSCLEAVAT
# Procedure, shortened: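 Read-out is % MLLT1 degradation versus DMSO, from band peak areas on a JESS chemiluminescent system. Cells (MV4-11) were exposed for 24 h at 37° C to three compound levels, 10, 100 and 1000 nM, in 0.1% DMSO.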
# MV4-11 cells = experiment: MV4-11 cellular proliferative assay, Assay Format B (CTG 2.0, 168 h); type: cell-based; conditions: Homo sapiens, 168 h (7 days), CTG 2.0, read-out: IC50 (MV4-11 cellular proliferative assay, Assay format B)
# Procedure, shortened: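 Viability read by CellTiter-Glo 2.0 luminescence after 7-day (168 h) compound exposure of MV4-11 cells in IMDM/10% FBS. Ten 3-fold concentrations starting at 1 uM or 100 nM, 0.3% final DMSO; curves normalised to DMSO control, four-parameter fit.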
SMILES,MLLT1% Degradation @ 0.01 μM (MLLT1),MLLT1% Degradation @ 0.1 μM (MLLT1),MLLT1% Degradation @ 1 μM (MLLT1),IC50 (MV4-11 cells) [µM]
"CN1CCC[C@@H]1c1cc2cnc(NC(=O)c3ccc(OCCN4CCC5(CC4)CCN(c4cccc6c4CN(C4CCC(=O)NC4=O)C6=O)CC5)cc3)cc2[nH]1 (stereo partly drawn) [Example 165, 4-(2-(9-(2-(2,6-dioxopiperidin-3-yl)-1-oxoisoindolin-4-yl)-3,9-diazaspiro[5.5]undecan-3-yl)ethoxy)-N-(2-((R)-1-methylpyrrolidin-2-yl)-1H-pyrrolo[3,2-c]pyridin-6-yl)benzamide]",A (Category A: A ≥ 75% degradation),A (Category A: A ≥ 75% degradation),A (Category A: A ≥ 75% degradation),≤ 0.1
"CN1CCC[C@@H]1c1cc2cnc(NC(=O)c3ccc(C4CCN(CC5CCN(c6cccc7c6CN(C6CCC(=O)NC6=O)C7=O)CC5)CC4)cc3)cc2[nH]1 (stereo partly drawn) [Example 167, 4-(1-((1-(2-(2,6-dioxopiperidin-3-yl)-1-oxoisoindolin-4-yl)piperidin-4-yl)methyl)piperidin-4-yl)-N-(2-((R)-1-methylpyrrolidin-2-yl)-1H-pyrrolo[3,2-c]pyridin-6-yl)benzamide]",A (Category A: A ≥ 75% degradation),A (Category A: A ≥ 75% degradation),A (Category A: A ≥ 75% degradation),≤ 0.1
"CN1CCC[C@@H]1c1cc2cnc(NC(=O)c3ccc(N4CCC(CN5CCN(c6cccc7c6CN(C6CCC(=O)NC6=O)C7=O)CC5)CC4)nc3)cc2[nH]1 (stereo partly drawn) [Example 168, 6-(4-((4-(2-(2,6-dioxopiperidin-3-yl)-1-oxoisoindolin-4-yl)piperazin-1-yl)methyl)piperidin-1-yl)-N-(2-((R)-1-methylpyrrolidin-2-yl)-1H-pyrrolo[3,2-c]pyridin-6-yl)nicotinamide]",A (Category A: A ≥ 75% degradation),A (Category A: A ≥ 75% degradation),A (Category A: A ≥ 75% degradation),≤ 0.1
"CN1CCC[C@@H]1c1cc2cnc(NC(=O)c3ccc(N4CCN(CC5CCN(c6cccc7c6CN(C6CCC(=O)NC6=O)C7=O)CC5)CC4)nc3)cc2[nH]1 (stereo partly drawn) [Example 169, 6-(4-((1-(2-(2,6-dioxopiperidin-3-yl)-1-oxoisoindolin-4-yl)piperidin-4-yl)methyl)piperazin-1-yl)-N-(2-((R)-1-methylpyrrolidin-2-yl)-1H-pyrrolo[3,2-c]pyridin-6-yl)nicotinamide]",B (Category B: 50% ≤ B < 75% degradation),A (Category A: A ≥ 75% degradation),A (Category A: A ≥ 75% degradation),≤ 0.1
"CN1CCC[C@@H]1c1cc2cnc(NC(=O)c3ccc(N4CCN(CC5CCN(c6ccc7c(c6)n(C)c(=O)n7C6CCC(=O)NC6=O)CC5)CC4)cc3)cc2[nH]1 (stereo partly drawn) [Example 170, 4-(4-((1-(1-(2,6-dioxopiperidin-3-yl)-3-methyl-2-oxo-2,3-dihydro-1H-benzo[d]imidazol-5-yl)piperidin-4-yl)methyl)piperazin-1-yl)-N-(2-((R)-1-methylpyrrolidin-2-yl)-1H-pyrrolo[3,2-c]pyridin-6-yl)benzamide]",A (Category A: A ≥ 75% degradation),A (Category A: A ≥ 75% degradation),A (Category A: A ≥ 75% degradation),≤ 0.1
"CN1CCC[C@@H]1c1cc2cnc(NC(=O)c3ccc(CCC4CCN(c5cccc6c5CN(C5CCC(=O)NC5=O)C6=O)CC4)cc3)cc2[nH]1 (stereo partly drawn) [Example 177, 4-(2-(1-(2-(2,6-dioxopiperidin-3-yl)-1-oxoisoindolin-4-yl)piperidin-4-yl)ethyl)-N-(2-((R)-1-methylpyrrolidin-2-yl)-1H-pyrrolo[3,2-c]pyridin-6-yl)benzamide]",A (Category A: A ≥ 75% degradation),A (Category A: A ≥ 75% degradation),A (Category A: A ≥ 75% degradation),≤ 0.1
"CN1CCC[C@@H]1c1cc2cnc(NC(=O)c3cnc(N4CCC(C#Cc5cccc6c5CN(C5CCC(=O)NC5=O)C6=O)CC4)cn3)cc2[nH]1 (stereo partly drawn) [Example 186, 5-(4-((2-(2,6-dioxopiperidin-3-yl)-1-oxoisoindolin-4-yl)ethynyl)piperidin-1-yl)-N-(2-((R)-1-methylpyrrolidin-2-yl)-1H-pyrrolo[3,2-c]pyridin-6-yl)pyrazine-2-carboxamide]",B (Category B: 50% ≤ B < 75% degradation),A (Category A: A ≥ 75% degradation),B (Category B: 50% ≤ B < 75% degradation),≤ 0.1
"CN1CCC[C@@H]1c1[nH]c2cc(NC(=O)c3ccc(OCCC4CCN(c5cccc6c5CN(C5CCC(=O)NC5=O)C6=O)CC4)cc3F)ncc2c1Cl (stereo partly drawn) [Example 190, N-(3-chloro-2-((R)-1-methylpyrrolidin-2-yl)-1H-pyrrolo[3,2-c]pyridin-6-yl)-4-(2-(1-(2-(2,6-dioxopiperidin-3-yl)-1-oxoisoindolin-4-yl)piperidin-4-yl)ethoxy)-2-fluorobenzamide]",B (Category B: 50% ≤ B < 75% degradation),A (Category A: A ≥ 75% degradation),A (Category A: A ≥ 75% degradation),≤ 0.1
"CN1CCC[C@@H]1c1[nH]c2cc(NC(=O)c3ccc(N4CCC(OCC5CCN(c6cccc7c6CN(C6CCC(=O)NC6=O)C7=O)CC5)CC4)nc3)ncc2c1Cl (stereo partly drawn) [Example 191, N-(3-chloro-2-((R)-1-methylpyrrolidin-2-yl)-1H-pyrrolo[3,2-c]pyridin-6-yl)-6-(4-((1-(2-(2,6-dioxopiperidin-3-yl)-1-oxoisoindolin-4-yl)piperidin-4-yl)methoxy)piperidin-1-yl)nicotinamide]",A (Category A: A ≥ 75% degradation),A (Category A: A ≥ 75% degradation),A (Category A: A ≥ 75% degradation),≤ 0.1
"CN1CCC[C@@H]1c1cc2cnc(NC(=O)c3ccc(N4CCN(CCC5CCN(c6cccc7c6CN(C6CCC(=O)NC6=O)C7=O)CC5)CC4)nc3)cc2[nH]1 (stereo partly drawn) [Example 193, 6-(4-(2-(1-(2-(2,6-dioxopiperidin-3-yl)-1-oxoisoindolin-4-yl)piperidin-4-yl)ethyl)piperazin-1-yl)-N-(2-((R)-1-methylpyrrolidin-2-yl)-1H-pyrrolo[3,2-c]pyridin-6-yl)nicotinamide]",A (Category A: A ≥ 75% degradation),A (Category A: A ≥ 75% degradation),B (Category B: 50% ≤ B < 75% degradation),≤ 0.1
"CN1CCC[C@@H]1c1cc2cnc(NC(=O)c3ccc(CN4CCN(CC5CCN(c6cccc7c6CN(C6CCC(=O)NC6=O)C7=O)CC5)CC4)cc3)cc2[nH]1 (stereo partly drawn) [Example 194, 4-((4-((1-(2-(2,6-dioxopiperidin-3-yl)-1-oxoisoindolin-4-yl)piperidin-4-yl)methyl)piperazin-1-yl)methyl)-N-(2-((R)-1-methylpyrrolidin-2-yl)-1H-pyrrolo[3,2-c]pyridin-6-yl)benzamide]",B (Category B: 50% ≤ B < 75% degradation),A (Category A: A ≥ 75% degradation),A (Category A: A ≥ 75% degradation),≤ 0.1
"CN1CCC[C@@H]1c1cc2cnc(NC(=O)c3ccc(N4CCC(OC=C=Cc5cccc6c5CN(C5CCC(=O)NC5=O)C6=O)CC4)nc3)cc2[nH]1 (stereo partly drawn) [Example 195, 6-(4-((3-(2-(2,6-dioxopiperidin-3-yl)-1-oxoisoindolin-4-yl)propa-1,2-dien-1-yl)oxy)piperidin-1-yl)-N-(2-((R)-1-methylpyrrolidin-2-yl)-1H-pyrrolo[3,2-c]pyridin-6-yl)nicotinamide]",A (Category A: A ≥ 75% degradation),B (Category B: 50% ≤ B < 75% degradation),A (Category A: A ≥ 75% degradation),≤ 0.1
"CN1CCC[C@@H]1c1cc2cnc(NC(=O)c3ccc(CCCC#Cc4cccc5c4CN(C4CCC(=O)NC4=O)C5=O)cn3)cc2[nH]1 (stereo partly drawn) [Example 197, 5-(5-(2-(2,6-dioxopiperidin-3-yl)-1-oxoisoindolin-4-yl)pent-4-yn-1-yl)-N-(2-((R)-1-methylpyrrolidin-2-yl)-1H-pyrrolo[3,2-c]pyridin-6-yl)picolinamide]",A (Category A: A ≥ 75% degradation),A (Category A: A ≥ 75% degradation),A (Category A: A ≥ 75% degradation),≤ 0.1
